{
  "source": "patent US9877997B2",
  "about": "“Methods and compositions for regulating SRCA2A expression levels in myocardial infarction” (Stealth BioTherapeutics Corp., priority 2013, dated 2018)",
  "key": {"[1]": {"system": "Rats with permanent left coronary artery occlusion", "assay": "Hemodynamics: heart rate, blood pressure and LV pressures by Millar catheter (Example 2)", "type": "in vivo, rat", "conditions": "6 weeks after treatment", "experimental": "(§1) Rats were anesthetized, ventilated, and a thoracotomy performed in the left 4th intercostal space. Temperature was maintained at 36° C. by placing the rats on a heating pad during the procedure. The pericardium was excised and the proximal left coronary artery isolated and permanently occluded with a suture. Coronary artery occlusion was confirmed by cyanosis and akinesis of the anterior wall of the ventricle. The chest was closed, air evacuated, and the rats allowed to recover. Analgesia was administered per the veterinarian. An echocardiogram was obtained at approximately 15 minutes post coronary artery occlusion. At 2 hours rats were randomized to receive chronic daily D-Arg-2′6′-Dmt-Lys-Phe-NH2 (delivered subcutaneously by an Alzet Osmotic Pump—3 mg/kg/day) or water. The Osmotic Pump delivered approximately 0.15 μl/hr for 6 weeks (model 2006; 200 μl). The Alzat pump was implanted subcutaneously between the shoulder blades while the rat was still anesthetized. After 6 weeks the rats were re-anesthetized, weighed, and a second echocardiogram was obtained under anesthesia. Cut downs were performed to isolate the carotid artery and jugular vein. Heart rate and blood pressure were measured. A Millar catheter was inserted into the left ventricle and LV systolic pressure, LV end diastolic pressure, +dP/dt, and −dP/dt were measured. A left ventriculogram was performed using IV fluoroscopic contrast in order to determine LV stroke volume and ejection fraction. Under deep anesthesia, the heart was excised, weighed, and pressure fixed at 11 mmHg with formalin. The lungs were also excised and weighed. Postmortem LV volume was measured by filling the LV cavity with fluid and measuring the total fluid. The hearts were sliced into four transverse sections and histologic slides were prepared and stained with hematoxylin and eosin and with picrosirius red, which stains collagen. Quantitative histologic analysis included: total circumference, scar circumference, non-infarcted wall circumference, total LV area, total LV cavity area, LV wall thickness (at several points), non-infarcted wall thickness; myocardial infarct expansion index.\n(§2) All data is reported as means±SEM. Values between groups were compared by Student t-test. P is significant at p<0.05 level."}, "[2]": {"system": "Rats with permanent left coronary artery occlusion", "assay": "LV stroke volume and ejection fraction by LV ventriculography (Example 2)", "type": "in vivo, rat", "conditions": "6 weeks after treatment, 3 mg/kg/day s.c.", "experimental": "(§3) Rats were anesthetized, ventilated, and a thoracotomy performed in the left 4th intercostal space. Temperature was maintained at 36° C. by placing the rats on a heating pad during the procedure. The pericardium was excised and the proximal left coronary artery isolated and permanently occluded with a suture. Coronary artery occlusion was confirmed by cyanosis and akinesis of the anterior wall of the ventricle. The chest was closed, air evacuated, and the rats allowed to recover. Analgesia was administered per the veterinarian. An echocardiogram was obtained at approximately 15 minutes post coronary artery occlusion. At 2 hours rats were randomized to receive chronic daily D-Arg-2′6′-Dmt-Lys-Phe-NH2 (delivered subcutaneously by an Alzet Osmotic Pump—3 mg/kg/day) or water. […] Heart rate and blood pressure were measured. A Millar catheter was inserted into the left ventricle and LV systolic pressure, LV end diastolic pressure, +dP/dt, and −dP/dt were measured. […] Postmortem LV volume was measured by filling the LV cavity with fluid and measuring the total fluid. […] Quantitative histologic analysis included: total circumference, scar circumference, non-infarcted wall circumference, total LV area, total LV cavity area, LV wall thickness (at several points), non-infarcted wall thickness; myocardial infarct expansion index. […]"}, "[3]": {"system": "Rats with permanent coronary artery ligation", "assay": "Post-infarction remodeling in a rodent model of heart failure, LV chamber volume (Example 3)", "type": "in vivo, rat", "experimental": "Rats underwent the permanent coronary artery ligation, as described in Example 2. The rats were split into two groups and treated for six weeks with either 3 mg/kg/day of D-Arg-2′6′-Dmt-Lys-Phe-NH2 or 0.9% NaCl (saline) continuously through mini-osmotic pumps, which were implanted into each animal.\nAfter the six week period, LV function was assessed with echocardiography. Additionally, the hearts were excised and the heart tissue analyzed for LV chamber volume using tetrazolium salt staining Heart tissue in the border zone and remote areas around the infarct were also harvested and underwent gene array analysis to determine the expression levels of genes involved in mitochondrial metabolism."}, "[4]": {"system": "Rats with permanent left coronary artery occlusion", "assay": "Survival during 6 weeks treatment after coronary occlusion (Example 2)", "type": "in vivo, rat", "conditions": "6 weeks treatment after randomization at 2 hours post occlusion", "experimental": "as §3"}, "[5]": {"system": "Rats with permanent left coronary artery occlusion", "assay": "Quantitative histologic analysis of scar circumference, scar thickness and expansion index (Example 2)", "type": "in vivo, rat", "conditions": "6 weeks after treatment", "experimental": "as §1, §2"}, "SERCA2a expression": {"system": "SERCA2a expression", "assay": "SERCA2a expression by qRT-PCR in heart samples post-myocardial infarction (Example 1)", "type": "in vivo", "conditions": "rat, 6 weeks, normalized to β-actin, relative to sham", "experimental": "Rats were anesthetized, ventilated, and a thoracotomy performed in the left 4th intercostal space. Temperature was maintained at 36° C. by placing the rats on a heating pad during the procedure. The pericardium was excised and the proximal left coronary artery isolated and permanently occluded with a suture. Coronary artery occlusion was confirmed by cyanosis and akinesis of the anterior wall of the ventricle. The chest was closed, air evacuated, and the rats allowed to recover. Analgesia was administered per the veterinarian. An echocardiogram was obtained at approximately 15 minutes post coronary artery occlusion. At 2 hours rats were randomized to receive chronic daily D-Arg-2′6′-Dmt-Lys-Phe-NH2 (delivered subcutaneously by an Alzet Osmotic Pump—3 mg/kg/day, n=7), water (n=7), sham operation (normal non-infarct hearts, n=7). The Osmotic Pump delivered approximately 0.15 μl/hr for 6 weeks (model 2006; 200 μl). The Alzat pump was implanted subcutaneously between the shoulder blades while the rat was still anesthetized.\nAfter 6 weeks, heart samples were collected from shams, border zone cells of water-treated infarcted hearts (MI/BZ) and D-Arg-2′6′-Dmt-Lys-Phe-NH2-treated hearts (MI/BZ+AP), and remote noninfarcted area cells of water-treated hearts (MI/R) and of D-Arg-2′6′-Dmt-Lys-Phe-NH2-treated hearts (MI/R+AP). […]"}, "[6]": {"system": "Rats with permanent left coronary artery occlusion", "assay": "LV fractional shortening by echocardiography, permanent coronary occlusion (Example 2)", "type": "in vivo, rat", "experimental": "as §1, with “The hearts were sliced into four transverse sections and histologic slides were prepared and stained with hematoxylin and eosin and with picrosirius red, which stains collagen.” left out, “index. […]” for “index.”"}, "[7]": {"system": "Rats with permanent left coronary artery occlusion", "assay": "Heart weight and post-mortem LV volume (Example 2)", "type": "in vivo, rat", "conditions": "6 weeks after treatment", "experimental": "as §1, with “The hearts were sliced into four transverse sections and histologic slides were prepared and stained with hematoxylin and eosin and with picrosirius red, which stains collagen.” left out, “index. […]” for “index.”"}, "[8]": {"system": "plasma membrane of several mammalian cell types", "conditions": "energy-independent manner; cited from earlier work"}},
  "data": [
    {"substance": "D-Arg-2′6′-Dmt-Lys-Phe-NH2", "values": [
      {"measurement": "minimum left ventricular pressure", "setting": "[1]", "result": "0.64±0.55", "unit": "mmHg"},
      {"measurement": "Diastolic BP", "setting": "[1]; 3 mg/kg/day s.c.", "result": "85 ± 2", "unit": "mmHg"},
      {"measurement": "Heart Rate", "setting": "[1]; 3 mg/kg/day s.c.", "result": "209 ± 5"},
      {"measurement": "Mean BP", "setting": "[1]; 3 mg/kg/day s.c.", "result": "94 ± 3", "unit": "mmHg"},
      {"measurement": "Systolic BP", "setting": "[1]; 3 mg/kg/day s.c.", "result": "114 ± 4", "unit": "mmHg"},
      {"measurement": "+dp/dt", "setting": "[1]; left ventricle", "result": 5668},
      {"measurement": "Ped (end diastolic left ventricular pressure)", "setting": "[1]; left ventricle", "result": 5.63},
      {"measurement": "Pes (end systolic left ventricular pressure)", "setting": "[1]; left ventricle", "result": 105},
      {"measurement": "Pmin (minimum left ventricular pressure)", "setting": "[1]; left ventricle", "result": "0.64 +"},
      {"measurement": "Tau Glantz", "setting": "[1]; left ventricle", "result": 24.6},
      {"measurement": "Tau Weiss", "setting": "[1]; left ventricle", "result": 14.6},
      {"measurement": "−dp/dt", "setting": "[1]; left ventricle", "result": 3639},
      {"measurement": "LV ejection fraction", "setting": "[2]", "result": "55.3±1.4", "unit": "%"},
      {"measurement": "LV stroke volume", "setting": "[2]", "result": "0.257 ± 0.008", "unit": "mL"},
      {"measurement": "LV volume/heart weight", "setting": "[3]; 3 mg/kg/day for six weeks by mini-osmotic pump versus 0.9% NaCl, FIG. 6", "result": "decrease in LV volume/heart weight"},
      {"measurement": "LV dilation", "setting": "[3]; 3 mg/kg/day for six weeks by mini-osmotic pump, post-infarction model of heart failure", "result": "reduced LV dilation"},
      {"measurement": "deaths during treatment", "setting": "[4]", "result": "no rats died"},
      {"measurement": "Scar circumference (%), expressed as percentage of total LV circumference", "setting": "[5]", "result": "39.7±2.2", "unit": "%"},
      {"measurement": "Scar thickness", "setting": "[5]", "result": "0.504 ± 0.039", "unit": "mm"},
      {"measurement": "Septum thickness", "setting": "[5]", "result": "1.45 ± 0.03", "unit": "mm"},
      {"measurement": "LV non-scar circumference", "setting": "[5]; histological analysis", "result": "15.4±0.4", "unit": "mm"},
      {"measurement": "scar circumference", "setting": "[5]; histological analysis", "result": "9.9±0.6", "unit": "mm"},
      {"measurement": "Expansion index", "setting": "[5]; [LV cavity area/Total LV area×Septum thickness/Scar thickness]", "result": "1.67 ± 0.12"},
      {"measurement": "SERCA2a expression, border zone cells (MI/BZ+AP)", "setting": "SERCA2a expression; 3 mg/kg/day s.c. osmotic pump from 2 hours post occlusion", "result": "restored SERCA2a expression to near normal levels"},
      {"measurement": "SERCA2a expression, nonischemic remote area (MI/R)", "setting": "SERCA2a expression; 3 mg/kg/day s.c. osmotic pump", "result": "no significant differences"},
      {"measurement": "left ventricular fractional shortening (LVFS)", "setting": "[6]; 6 weeks after treatment, 3 mg/kg/day s.c. osmotic pump from 2 hours post occlusion", "result": "28.8±1.7", "unit": "%"},
      {"measurement": "left ventricular fractional shortening (LVFS)", "setting": "[6]; 15 minutes after coronary occlusion (before treatment)", "result": "45±1.8"},
      {"measurement": "left ventricular fractional shortening (LVFS)", "setting": "[6]; baseline before coronary occlusion (before treatment)", "result": "44.5±1.1", "unit": "%"},
      {"measurement": "Heart weight", "setting": "[7]; 3 mg/kg/day s.c.", "result": "0.724 ± 0.011", "unit": "g"},
      {"measurement": "LV volume (post-mortem)", "setting": "[7]; heart pressure fixed at 11 mmHg", "result": "0.519 ± 0.019", "unit": "mL"},
      {"measurement": "LV volume/heart weight", "setting": "[7]; post-mortem LV volume standardized by heart weight", "result": "0.72±0.02"}
    ]},
    {"substance": "2′,6′-Dmt-D-Arg-Phe-Lys-NH2", "values": [
      {"measurement": "plasma membrane penetration", "setting": "[8]", "result": "readily penetrates the plasma membrane"}
    ]}
  ]
}
